The term IC50 denotes the midpoint of a concentration-inhibition curve. One may read the EC50 as the concentration that produces a half-maximal response.

Read-outs that look alike come from different tables or passages of the source. Where only a bound is given, the exact number is not on record here.

These results are taken from patent publication US8440830B2, “Tetrahydro-fused pyridines as histone deacetylase inhibitors” (4SC AG, priority 2007, dated 2013).

The test system of one assay is HDACs 4 to 8. As to conditions: read-out: IC50 HDACs 4 to 8; Kalita et al. 2005; cited from earlier work.
Another assay deals with T1, HDAC11 (Homo sapiens, UniProt Q96DB2).
T1 sequence (Q96DB2 1-347): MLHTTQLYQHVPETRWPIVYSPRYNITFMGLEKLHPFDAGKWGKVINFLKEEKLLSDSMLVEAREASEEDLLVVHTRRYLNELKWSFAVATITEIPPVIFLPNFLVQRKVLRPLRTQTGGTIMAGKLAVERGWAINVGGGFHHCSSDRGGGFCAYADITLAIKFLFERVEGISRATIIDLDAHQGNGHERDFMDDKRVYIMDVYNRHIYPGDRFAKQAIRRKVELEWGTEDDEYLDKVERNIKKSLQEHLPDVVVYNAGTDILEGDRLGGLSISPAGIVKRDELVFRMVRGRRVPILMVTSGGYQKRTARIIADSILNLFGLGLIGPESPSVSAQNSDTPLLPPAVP
As to conditions: Kalita et al. 2005; one range for HDAC1, 2, 3 and 11; cited from earlier work.

Assay [1] concerns acute human T-lymphoblastic leukemia cell line CCRF-CEM. The conditions noted are these: about 10.000 unique accession numbers, Peart et al. 2005; cited from earlier work.
Assay [2] deals with fully transformed malignant cancer cell lines. In words: Anti-proliferative activity, selection of cell lines (Alamar Blue). Format: cell-based. The conditions noted are these: Homo sapiens, 72 h, mean over cell lines, read-out: Mean IC50 values as calculated for fully malignant cancer cell lines. The protocol:
(§1) The anti-proliferative activity of the histone deacetylase inhibitory compounds as described herein, is evaluated using the following cell lines: HeLa and HeLa-KB (cervical carcinoma), H460 (non small cell lung cancer), A549 (non-small cell lung cancer), MCF7 (breast carcinoma), MCF10A (normal, non tumorigenic breast epithelial), MDA-MB468 (breast carcinoma), MDA-MB435 (breast carcinoma), MDA-MB231 (breast carcinoma), SKBR-3 (breast carcinoma), SKOV-3 (ovarial carcinoma), A-2780 (ovarial carcinoma), RKO (colon carcinoma), HCT-15 (colon carcinoma), HCT-116 (colon carcinoma), PC3 (prostate carcinoma), BPH1 (benign prostate hyperplasia), AsPC1 (pancreatic carcinoma), Ca127 (tongue carcinoma), A-431 (vulva carcinoma), Hec1A (endometrial carcinoma), Saos-2 (osteosarcoma), U87MG (glioblastoma), WM266-4 (melanoma), K562 (chronic myeloid leukemia), EOL1 (acute hypereosinophilic myeloid leukemia), CCRF-CEM and CCRF-CEM VCR1000 (acute lymphoblastic leukemia sensitive and resistant towards Vincristine). For quantification of cellular proliferation/living cells the Alamar Blue (Resazurin) cell viability assay is applied (O'Brien et al. Eur J Biochem 267, 5421-5426, 2000). In this assay Resazurin is reduced to the fluorescent resorufine by cellular dehydrogenase activity, correlating with viable, proliferating cells. The examples are dissolved as 20 mM solutions in dimethylsulfoxide (DMSO) and subsequently diluted in semi-logarithmic steps. Cell lines are seeded at respective density into 96 well flat bottom plates in a volume of 200 μl per well. 24 h after seeding 1 μl each of the compound dilutions are added into each well of the 96 well plate. Each compound dilution is tested as quadruplicates. Wells containing untreated control cells are filled with 200 μl DMEM medium containing 0.5% v:v DMSO. The cells are then incubated with the compounds for 72 h at 37° C. in a humidified atmosphere containing 5% carbon dioxide. To determine the viability of the cells, 20 μl of a Resazurin solution (Sigma; 90 mg/l) are added. After 4 h incubation at 37° C. the fluorescence is measured at an extinction of λ=544 nm and an emission of λ=590 nm. For the calculation of the cell viability the emission value from untreated cells is set as 100% viability and the emission rates of treated cells are set in relation to the values of untreated cells. Viabilities are expressed as % values. The corresponding IC50 values of the compounds for cytotoxic activity are determined from the concentration-effect curves by means of non-linear regression.
The anti-proliferative activity of compounds from examples 1, 2, 3, 12 and 150 is evaluated by using a broad selection of non-malignant cell lines and fully transformed malignant cancer cell lines.

The subject of assay [3] is histone H3 hyperacetylation in HeLa cervical carcinoma cells. In words: Cellular histone H3 hyperacetylation assay. Format: cell-based. The conditions noted are these: Homo sapiens, 24 h treatment. From the text: To assess the cellular efficacy of a histone deacetylase inhibitor in vitro, an assay is set up in black clear-bottom 96-well plates and optimized for use on the Cellomics “ArrayScan II” platform for a quantitative calculation of histone acetylation. The protocol uses a polyclonal rabbit antibody, specifically binding to acetylated lysine 1-20 (including K 9 and K14) of human histone H3 on fixed cells with an Alexa Fluor 488 labeled goat anti rabbit-IgG used for counterstaining 5×10^3 HeLa cervical carcinoma cells/well (ATCC CCL-2) in 200 μl Dulbecco's modified Eagle's medium (DMEM) containing 10% fetal calf serum are seeded at day 1 in Packard view plates and incubated for 24 h under standard cell culture conditions. On day 2, 1 μl test compound (200× final concentration) is added and incubation continued for further 24 h. On day 3, the culture medium is discarded and attached cells fixed for 15 min at room temperature by addition of 100 μl fixation buffer (3.7% v:v formaldehyde in phosphate buffered saline/PBS). After discarding the fixation buffer and one wash with blocking solution (1% BSA, 0.3% Tween 20 in PBS), cells are permeabilized at room temperature by addition of 100 μl /well permeabilization buffer (30.8 mM NaCl, 0.54 mM Na2HPO4, 0.31 mM KH2PO4, 0.1% v:v Triton X-100) for 15 min at room temperature. After discarding the permeabilization buffer and washing twice with 100 μl/well blocking solution at room temperature, the 1st antibody (anti-K1-20 histone H3 antibody, Calbiochem No. 382158) in blocking solution (50 μl/well) is added. After incubation for 1 h at room temperature, the wells are washed twice at room temperature with 100 μl/well blocking solution before addition of the 2nd antibody (goat-anti-rabbit Alexa Fluor 488; MoBiTec No. A -11008) in blocking solution (50 μl well). After further incubation for 1 h at room temperature, wells are washed twice with 100 μl/well blocking solution at room temperature. Finally, 100 μl/well PBS are added and image analysis performed on the Cellomics “ArrayScan II” platform. For EC50 determination, the percentage of positive cells showing nuclear fluorescence is determined and EC50 calculation done from concentration-effect curves by means of non-linear regression. For calibration, a positive (reference HDAC inhibitors like SAHA or NVP LBH-589) and a negative control were included.

The subject of assay [4] is A549 NSCLC cells. Nature of the assay: Cellular cytotoxicity assay (Alamar Blue), A549. The class given is cell-based. The conditions noted are these: Homo sapiens, 72 h, upper end given as ≧100, read-out: IC50 (μM), cytotoxicity towards A549 NSCLC cells. The method, boiled down: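 Resazurin-to-resorufin fluorescence (ex 544, em 590 nm, after 4 h) gave viability as % of untreated cells following 72 h compound exposure at 37 °C. Compounds were added in semi-logarithmic dilutions 24 h post-seeding, quadruplicate wells; IC50 fitted by non-linear regression of concentration-effect curves.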
On the technique in general: Resazurin is reduced to fluorescent resorufin, in cell work by metabolically active cells.

The test system of assay [5] is RKO colon carcinoma cells with conditional p21^waf1 expression. Nature of the assay: Cell cycle dependent cytotoxicity, RKO exop21 cell system. The class given is cell-based. As to conditions: Homo sapiens, 72 h. How it is done:
as §1
For determination of cell-cycle dependent cytotoxicity, the RKO exop21 cell system is applied (Schmidt et al. Oncogene 19: 2423-2429, 2000). Briefly, RKO cells with/without p21^waf1 expression (2×10^4 cells/well induced, 6×10^3 cells/well not induced) are treated with the compounds for 72 h and metabolic activity quantified as described before. The expression of p21^waf1 was induced by treatment with Pronasterone A, causing a complete proliferation arrest of RKO cells in the G1 and G2 phases of the cell division cycle.

For assay [6], the system named is A549 NSCLC cells. Nature of the assay: Cell cycle analysis by flow cytometry. The class given is cell-based, human. The conditions noted are these: A549, 24 h treatment. The protocol: A549 NSCLC cells (ATTC CCL-185) are cultivated in DMEM with high glucose (supplemented with 10% FBS) at 5% CO2 and 37° C. in a humidified atmosphere under standard cell culture conditions. 24 h before compound treatment, cells are seeded at 5×10^4 cells/ml (=5×10^5 cells/10 cm cell culture dish) to allow logarithmic proliferation during the experiment. After 24 h, cells were treated with test compound or 0.5 vol % DMSO as a control. After 24 h and 48 h treatment, the culture medium is collected and detached, floating cells are collected by short centrifugation (5 min at 1200 rpm). Attached cells are washed once with 5 ml PBS, detached by treatment with 3 ml trypsin/EDTA solution (short incubation for 3-5 min) and—together with detached, floating cells—transferred into 15 ml Falcon tubes. The cell culture dish is washed with 10 ml DMEM to collect all remaining cells. After centrifugation for 5 min at 1200 rpm at room temperature, the supernatant is discarded and the cell pellet washed twice with 10 ml PBS. The supernatant is discarded, the cells resuspended in 4 ml ice-cold fixation solution (70 vol % ethanol, 30 vol % H2O; stored at −20° C.) and stored at −20° C. overnight. Next, 10 ml PBS (4° C.) is added to the cells, before centrifugation for 5 min at 1200 rpm (4° C.). The supernatant is discarded, the cell pellet washed once with 10 ml PBS (4° C.) and the cell pellet finally resuspended in about 1 ml staining solution (10 μg/ml RNAse A, 10 μg/ml propidiumiodide in PBS, final volume dependent on cell number). After incubation for 30 min at room temperature in the dark, cells are stored on ice and analyzed using the Becton Dickinson FACS Canto device. Analysis is done at an excitation of λ=488 nm with emission set as λ=600 nm.
Data analysis: Cells are analyzed according to size, granularity and propidiumiodide intensity. Size and granularity of cells are determined by measurement of forward scatter (FSC) and side scatter (SSC) of the λ=488 nm excitation light, respectively. To discriminate cells with 4N DNA content from cell doublets (two attached cells with 2N DNA content each), the ratio between the area under the propidiumiodide peak (PE-A) and the height of the propidiumiodide peak (PE-H) for each cell is determined. Cell doublets need more time to pass through the laser beam, which causes a broadening of the propidiumiodide peak and an increase of the ratio PE-A/PE-H. Using this analysis, cells in 4N and cell doublets appear as distinct clouds in a scatter plot and are excluded from the analysis. Thus, the area under the propidiumiodide peak at λ=600 nm (PE-A) is a measure for the DNA content of the cells. PE-A is blotted against the measured cell number in a histogram in order to determine the percentage of analyzed cells in an individual stage of the cell cycle.

The mark [7] stands for this setting: read-out: EC50, induction of histone H3 hyperacetylation.
[8] abbreviates: read-out: −lg EC50, induction of histone H3 hyperacetylation.

With `Nc1ccccc1NC(=O)c1ccc(CNc2nccc(-c3cccnc3)n2)cc1` [MGCD0103], the half-inhibitory concentration (IC50) is greater than 20 µM in the assay with HDACs 4 to 8 and 0.1 to 2 µM at HDAC11.
In the case of `O=C(CCCCCCC(=O)Nc1ccccc1)NO` [SAHA, suberoylanilide hydroxamic acid], the “share of analyzed genes whose expression was changed” value in assay [1] was 22.1%.
In the case of `Cc1ccc(S(=O)(=O)N2CCc3nc(C(=O)Nc4ccccc4N)sc3C2)cc1` [Example 150, N-(2-aminophenyl)-5-[(4-methylphenyl)sulfonyl]-4,5,6,7-tetrahydro[1,3]-thiazolo[5,4-c]pyridine-2-carboxamide], the concentration for half-maximal inhibition (IC50) in assay [2] was 2.4 to 5.4 µM; with A549 NSCLC cells [4], no less than 0.2 µM; in assay [5] (RKO arrested, p21^waf1 expressed, read-out: RKO arrested (p21^waf1 expressed) IC50), 1.1 to 4.9 µM; in assay [5] (RKO proliferating, p21^waf1 not induced, read-out: RKO proliferating IC50) it was 1.1 to 4 µM. The EC50 in assay [3] (setting [7]) was 0.15 to 15 µM; in assay [3] (setting [8]) it was 0.251 to 15.8 µM.
`Nc1ccccc1NC(=O)c1nc2c(s1)CN(C(=O)OCc1cccnc1)CC2` [Example 189, Pyridin-3-ylmethyl 2-[(2-aminophenyl)carbamoyl]-6,7-dihydro[1,3]thiazolo[5,4-c]pyridine-5(4H)-carboxylate]: in the assay with A549 NSCLC cells [6], the “concentration inducing arrest in G1, depletion of cells in the S-phase and reduction of cells in the G2/M-phase” value was “around 3 μM”. Also, the EC50 was in the range of 0.15 to 15 µM in assay [3] (setting [7]) and 0.251 to 15.8 µM in assay [3] (setting [8]). Besides, the IC50 with A549 NSCLC cells [4] is no less than 0.2 µM.
